Data on two substances can be found in patent US20060287233A1, “Method of use of antagonists of zonulin to prevent the loss of or to regenerate pancreatic cells” (priority 2005, published 2006).

Entries after “also recorded” stand apart in the source; their conditions may differ. Ends that are not written are not given here.

Assay [1] concerns pancreatic islets of BBDP rats. As to the kind of experiment: Histology and immunohistology of pancreata of BBDP rats. The note with it: treated rats that did not develop T1D; listed as AT1001. It is filed as in vivo, rat. The method, then: Samples of the pancreas were taken from animals that had been treated starting at day […] and examined. The results of the histological examination are shown in FIG. 9 and the results of the immunohistological examination are shown in FIG. 10.
To verify the identities of the cells observed in the histological analysis, immunohistological examination was conducted. Pancreata were sequentially stained with either anti-glucagon antibody, which is specific for glucon-producing […], or with anti-insulin antibodies, which is specific for insulin-producing β-cells. When untreated pancreas is stained with anti-insulin antibodies, no signal is detected. This is consistent with the destruction of β-cells in T1D. Staining of these cells with anti-glucagon antibodies identifies glucagon producing […]. Normal islets have a loaf-shaped structure with the outside of the islet containing […] and the inside of the islet containing β-cells. […] The structure of the islets was more normal as indicated by the staining pattern with anti-glucagon antibodies FIG. 10D.

A further assay concerns BB/Wor rats. As to the kind of experiment: Prevention of diabetes in BB/Wor rats, antagonist in drinking water. It is filed as in vivo, rat. The note with it: 10 μg/ml in drinking water, n=5. How it is done: Both groups were maintained on a standard diet of rat chow (Harlan Teklab Diet #7012). All food and water were previously autoclaved. Each day, daily water intake was measured and 100 ml of fresh water was given. The treated group received 10 μg/ml of the zonulin peptide antagonist (SEQ ID NO: 15) supplemented in the drinking water. The rats were housed in hepa-filter cages.
Diabetes in the rats was diagnosed as follows: The rats were weighed twice a week. Blood glucose was determined weekly using the OneTouch® glucose monitoring system (Johnson & Johnson). Each week, reagent strips for urinalysis were used to monitor glucose (Diastix®) and ketones (Ketositx®) (Bayer). Rats with a blood glucose >250 mg/dl were fasted overnight, and blood glucose levels >200 mg/dl were considered diabetic.
Following clinical presentation of diabetes, the rats were sacrificed as follows: the rats were anesthesized using ketamine anesthesia and a midline incision was made allowing access to the heart. An 18 G needle was placed into the heart and death occurred by exsanguinations. Then, zonulin assays were conducted as described above. […] According to Biomedical Research Models, Inc., 80% of diabetes prone rats present with diabetes by age 80 days.

For another assay, the system named is rabbit ileum. As to the kind of experiment: Tissue resistance (Rt) of rabbit ileum mounted in Ussing chambers. The method, then: Next, rabbit ileum mounted in Ussing chambers as described below, were exposed to 100 μg of FZI/O (SEQ ID NO:15), 100 μg of FZI/1 (SEQ ID NO:29), 1.0 μg of 6×His-ZOT (obtained as described in Example 1 of U.S. patent application Ser. No. 09/127,815, filed Aug. 3, 1998), 1.0 μg of zonulini (obtained as described in Example 3 of U.S. patent application Ser. No. 09/127,815, filed Aug. 3, 1998), or 1.0 μg of zonulinh (obtained as described in Example 3 of U.S. patent application Ser. No. 09/127,815, filed Aug. 3, 1998), alone; or pre-exposed for 20 min to 100 μg of FZI/O or FZI/1, at which time 1.0 μg of 6×His-ZOT, 1.0 μg of zonulini, or 1.0 μg of zonulinh was added. ΔRt was then calculated as Rt=PD/Isc where PD=potential difference and Isc=short circuit current.

In the next assay the test system is BBDP rats. As to the kind of experiment: Treatment of autoimmune diabetes in BBDP rats, therapy initiated after seroconversion. It is filed as in vivo, rat. The method, then: A test group of 52-54 day old diabetes-prone rats were treated with a zonulin antagonist peptide AT1001 (SEQ ID NO:15) while an age matched control group was not treated. The antagonist was administered at this time because at 40 days these rats show an increase in zonulin levels and at 50 days autoimmune antibodies can be detected. Thus, treatment was started after […].
BBDP animals age 52-54 were days divided in two groups. Group 1 (n=20) received AT-1001 daily in drinking water+HCO3. Group 2 (n=10) received drinking water+HCO3. Animals were randomized to receive either placebo or treatment with the synthetic zonulin peptide inhibitor AT-1001 (SEQ ID:15) in their water supply in a blinded fashion during treatment arm T0. At the disease endpoint (fasting blood glucose>250 mg/dl), BBDP rats that developed T1D (60% incidence in placebo group, average age 110 days) were euthanized and blood and tissue samples collected. […] Serum zonulin and autoantibody levels were monitored at the beginning of the study and at its endpoint. Water intake was monitored daily, while weight gain and serum glucose levels were checked weekly. Rats with fasting blood glucose ≧250 mg/dl were considered diabetic and were sacrificed within 24 hours of reaching the diabetic status.

Consider “GGVLVQPG [FZI/O, synthetic octapeptide corresponding to amino acid residues 8-15 of human fetal zonulin]”, for which, in assay [1], the “pancreas histology (haematoxylin and eosin)” value is recorded as “evidence of the regeneration of β-cells was observed; also recorded: either normal islet histology or islet showing signs of recovery from insulitis; also recorded: perivascular inflammation without insulitis”; the “pancreatic islet immunohistology (insulin and glucagon staining)” value is “preserved islets with detectable insulin-producing beta cells; also recorded: islets that were either undamaged (C and D) or showed signs of recovery from an insulitis insult”. Further, in the assay with BB/Wor rats, the “rats that developed diabetes by age 80 days” value came to 40% and the “treated rats that did not develop diabetes” value is 60%. Further, in the assay with rabbit ileum (100 μg peptide alone), the “change in Rt as compared to the negative control” value is 0.5%. Besides, the “decrease of the effect of ZOT on Rt” value in the assay with rabbit ileum (pre-treatment for 20 min with 100 μg peptide, then 1.0 μg 6×His-ZOT) turned out to be 75%. Further, the “decrease of the effect of zonulinh on Rt” value with rabbit ileum (pre-treatment for 20 min with 100 μg peptide, then 1.0 μg zonulinh) was found to be 100%. For the same substance, the “decrease of the effect of zonulini on Rt” value with rabbit ileum (pre-treatment for 20 min with 100 μg peptide, then 1.0 μg zonulini) is on record as 97%. The “animals that developed diabetes under continued treatment” value with BBDP rats (continued treatment after 120 days, arm T1) was “none”. The “anti-glutamic acid decarboxylase (GAD) antibodies” value with BBDP rats (following treatment) is “significant reduction”. Besides, in the assay with BBDP rats (treated group), the “average age of onset of T1D” value is 86.0 ± 10.3 days. In the assay with BBDP rats (treatment arm T0, in drinking water from age 52-54 days), the “animals that progressed to T1D” value is listed as 35%. Further, the “rats that developed diabetes” value in the assay with BBDP rats (treatment arm T0, treated group n=20) is 7 of 20. Moreover, in the assay on BBDP rats (up to age 205 days (150 days post-treatment)), the “progression to T1D” value is “significantly reduced”. The “animals that developed diabetes after treatment was withdrawn (fraction)” value with BBDP rats (withdrawal after 120 days) was “⅓”. Further, in the assay on BBDP rats (withdrawal at age 120 days, arm T1), the “onset of T1D after withdrawal of treatment” value amounted to 33%.
For the substance “FZI/1: second synthetic peptide: Gly in position 8, Val in position 12, Gln in position 13 changed to residues of zonulinb (Val, Gly, Arg) (VGVLGRPG; sythetic peptide) [reference compound]”, the “inhibitory effect on the Rt change induced by ZOT, zonulini and zonulinh” value in the assay on rabbit ileum (pre-exposure for 20 min to 100 μg peptide) is on record as “completely ablated”.
